Laboratory results reported in article PMC3606118, “Salvianolic Acid A, a Novel Matrix Metalloproteinase-9 Inhibitor, Prevents Cardiac Remodeling in Spontaneously Hypertensive Rats” (PLoS ONE, 2013).

Assays:
[1] = test system: neonatal cardiac fibroblast; experiment: Multiplex cytokine assay (Procarta) in cardiac fibroblast supernatants; assay type: cell-based, Wistar rats; details: 1 or 10 µmol/L SalA, 24 h
Procedure: Primary cardiac fibroblast was obtained from neonatal rats and National Institutes of Health (NIH) Guide for the Care and Use of Laboratory Animals was followed throughout. Wistar rats (2–4 day old) were sacrificed by cervical dislocation; ventricles were minced and digested with 0.1% trypsin at 37°C for 8 min. The liberated cells were collected by centrifugations; non-digested chunk materials were further digested in 0.1% trypsin for an additional 8 min. This digestion procedure was repeated 3–4 times. All the liberated cells were pelleted by centrifugation at 1,000 rpm for 10 min, re-suspended in DMEM containing 10% fetal bovine serum (FBS), and cultured in a 100-mm noncoated culture flask at 37°C with 5% CO2 for 2 h. Adherent cardiac fibroblasts were collected and maintained in DMEM supplemented with 10% FBS, 100 U/mL penicillin, 100 µg/mL streptomycin [12]. Cardiac fibroblasts were treated by vehicle (Con); 200 nmol/L MMP-9 CD (MMP-9); 200 nmol/L MMP-9 CD plus 1 µmol/L SalA [MMP-9/SalA(1)]; or 200 nmol/L MMP-9 CD plus 10 µmol/L SalA [MMP-9/SalA(10)] for the following research. All the detections were conducted after 24 h treatment.
Procarta cytokine profiling kit (Panomics, CA, USA) was used to simultaneously detect 3 different rat cytokines in the cell culture supernatants, according to manufacturer’s instruction. Briefly, 50 µL antibody beads were added to each well of the Filter plate, washed with Wash buffer. Fifty microliter cell culture supernatant was then added to each well, incubated for at least 1 h at room temperature, and washed with Wash buffer. Afterwards, 25 µL per well of the Detection Antibody was added and the Filter plate was shaken at 500 rpm for 30 min at room temperature. After adding Sreptavidin-PE, the signals were detected using a Luminex 200 instrument (Bio-Rad, CA, USA). The cytokines included in the present study were intercellular adhesion molecule (ICAM), interleukin-6 (IL-6), tumor necrosis factor-α (TNF-α and soluble vascular cell adhesion molecule-1 (sVCAM-1).

MMP-2 = molecular target: T1, MMP-2 (Rattus norvegicus, UniProt P33436); experiment: In-gel gelatin zymography of SHR heart, MMP-2; assay type: in vivo, SHR rats; details: SalA i.p. everyday for 4 weeks
T1 construct: twenty µg protein from tissue; from tissue; host or cells: heart of spontaneously hypertensive rats (SHR)
T1 sequence (P33436 110-662): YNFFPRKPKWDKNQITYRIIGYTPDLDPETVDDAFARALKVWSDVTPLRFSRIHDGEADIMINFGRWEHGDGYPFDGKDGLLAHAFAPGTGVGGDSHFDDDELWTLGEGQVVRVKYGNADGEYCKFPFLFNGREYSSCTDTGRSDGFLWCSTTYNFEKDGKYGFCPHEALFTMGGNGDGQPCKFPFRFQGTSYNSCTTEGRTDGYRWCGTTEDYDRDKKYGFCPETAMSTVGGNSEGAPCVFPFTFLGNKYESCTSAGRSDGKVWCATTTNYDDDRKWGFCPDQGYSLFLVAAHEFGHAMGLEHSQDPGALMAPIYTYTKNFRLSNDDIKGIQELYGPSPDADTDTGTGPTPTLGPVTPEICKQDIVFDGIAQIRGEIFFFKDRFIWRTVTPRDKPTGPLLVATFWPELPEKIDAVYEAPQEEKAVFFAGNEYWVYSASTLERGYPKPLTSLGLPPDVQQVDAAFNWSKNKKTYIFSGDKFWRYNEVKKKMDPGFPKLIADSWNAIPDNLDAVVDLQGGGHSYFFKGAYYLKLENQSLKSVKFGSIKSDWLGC

[2] = Toxicological evaluation of SalA on SHR; assay type: in vivo, SHR rats
Procedure: 2-month old male SHR rats were given rodent chow containing 8% NaCl 4 weeks before SaA treatment to the end of the experiment. Rats were divided into four groups (20 per group) and were injected intraperitoneally with saline or SalA everyday at the indicated dose for 4 weeks. The four groups were named as SalA (0 mg/kg), SalA (2.5 mg/kg), SalA (5 mg/kg), SalA (10 mg/kg) basing on the dose of SalA, respectively.
After ketamine-xylazine anesthesia (ketamine: xylazine, 60∶5 mg/kg, intramuscularly), heart, liver and kidney samples from experimental animals were fixed with 4% neutral-buffered paraformaldehyde for 24 h. Specimens were paraffin-embedded, sliced at 5 µm, and stained with haematoxylin and eosin. After staining, the sections were rinsed with distilled water, dehydrated, and mounted with Permount. Photomicrographs were taken using an Olympus BX51 microscope plus Olympus DP71 CCD camera (Olympus Corporation). Software Image-Pro Plus version 6.0 was used and approximately 150 cells per heart were measured to determine the average myocyte circumference. Paraffin-embedded slices were also stained with 0.1% picric sirius red (Sigma-Aldrich Inc, St Louis, USA) for fibrillar collagen. Collagen volume fraction (CVF) was expressed as a percentage of the total area of the field occupied by collagen staining.

O=C(/C=C/c1ccc(O)c(O)c1/C=C/c1ccc(O)c(O)c1)O[C@H](Cc1ccc(O)c(O)c1)C(=O)O [SalA, salvianolic acid A]
ICAM secretion induced by MMP-9 CD [1]: inhibition
IL-6 secretion induced by MMP-9 CD [1]: inhibition
TNF-α secretion induced by MMP-9CD [1]: No significant inhibitory effect
sVCAM-1 secretion induced by MMP-9 CD [1]: inhibition
MMP-2 activity in heart of SHRs (MMP-2): no regulation
signs of toxicity or mortality ([2]; intraperitoneally administered to rats for 1 month): failed to induce any signs of toxicity or mortality
body weight, food consumption ([2]; rat, in vivo, 10 mg/kg): no changes
